Data taken from patent publication US20120029078A1, “COMPOSITIONS COMPRISING MYRISTIC ACID AND USES THEREOF” (IMAGENETIX, INC., priority 2010, published 2012).

What was measured:
[1] = tested on: IL-4; test: CD3/CD28-activated cytokine release from human primary T-lymphocytes: IL-4; type: cell-based; conditions: 24 and 48 hours; FIG. 10
Description: (§1) Cytokine release from T-lymphocytes was measured and assessed in order to determine the anti-inflammatory effects of cetylated fatty acids such as 1-TDC and uncetylated fatty acids such as myristic acid. More specifically, the following compounds were tested: 1-TDC, 2-TDC, cetyl myristate (CM), myristic acid (MA), palmityl myristate (PM), palmityl oleate (PO), and palmityl myristoleate (PMO). For this experiment, peripheral blood mononuclear cells were isolated from healthy donors (n=8) with no known medication use by Ficoll-Hypaque density gradient centrifugation. Primary T-lymphocytes were separated from other mononuclear cells (e.g., monocytes) by negative selection using magnetic cell sorting (Dynal, Invitrogen) and pure cell cultures were treated with various doses of tested compounds for 30 minutes. The tested doses were 10^−5-10^−9M. […] Supernatants were collected at 24 and 48 hours and were stored at −80° C. until analyzed. […] The cytokine release was analyzed by xMAP multiplexing technology using Luminex 100 platform. […] The following T-lymphocyte associated cytokines: IFN-γ, IL-2, IL-10, IL-5, and IL-4 were assessed. […] While the validity of this shift is questioned in different diseases and/or infections, the central role of T cells in the progression of inflammation is still evaluated on the cytokine release by these subsets of lymphocytes. […]

[2] = tested on: TNF-α; test: LPS-activated cytokine release from human primary monocytes (xMAP Luminex): TNF-α; type: cell-based
Description: (§2) Cytokine release from monocytes was measured and assessed in order to determine the anti-inflammatory effects of cetylated fatty acids such as 1-TDC and non-cetylated fatty acids such as myristic acid. Human primary monocytes were provided by healthy subjects (n=7) who were not taking medication, had no medical condition, and no periodontal or gingival inflammation. None of the subjects were smokers and all subjects were of Caucasian origin with an age range of 24-51 years old. All patient samples were obtained after the approval of the Institutional Review Board at Boston University Medical Center.
(§3) Fresh peripheral venous blood ([…]) was obtained by venipuncture into heparinized (10 U/mL) glass tubes. Monocytes were isolated using Ficoll-Hypaque density gradient centrifugation and separated from the other mononuclear cells (e.g., lymphocytes) by adherence for over 2 hours. Pure cell cultures were treated with various doses (10^−5-10^−9 M) of various types of fatty acids such as 1-TDC and myristic acid for 30 minutes. Vehicle (5% ethyl alcohol), which was used to dissolve the compound into an aqueous preparation, was used as the negative control while dexamethasone (1 nM) was used as the positive control. After incubation with the test compound, half of the samples were treated with LPS from E. coli (100 ng/mL) as the activator of cell cytokine release over various time points (24 hours) at 37° C. under 5% CO2. Supernatants were collected and stored at −80° C. until analyzed. Each sample was prepared in triplicate. Cytokine release (IL-1β, TNF-α, IL-6, IL-12, IL-8, and MCP-1) was analyzed by xMAP multiplexing technology using Luminex 100 Platform. Data was presented as % inhibition over the vehicle's effect of LPS-mediated cell activation. Dexamethasone inhibition was taken as 100% inhibition.
(§4) Cytokine release data were gathered at 6, 24, and 48 hour time points for monocyte/macrophages (FIGS. 3-5). Each experiment was repeated at least 3 times and data was presented as percentage of inhibition over the vehicle's effect of LPS-mediated cell activation.

[3] = tested on: IL-10; test: CD3/CD28-activated cytokine release from human primary T-lymphocytes: IL-10; type: cell-based; conditions: 24 and 48 hours; FIG. 9
Description: as §1

[4] = tested on: IL-5; test: CD3/CD28-activated cytokine release from human primary T-lymphocytes: IL-5; type: cell-based; conditions: 24 and 48 hours; FIG. 11
Description: as §1

[5] = tested on: IFN-γ; test: CD3/CD28-activated cytokine release from human primary T-lymphocytes: IFN-γ; type: cell-based; conditions: FIG. 7
Description: Cytokine release from T-lymphocytes was measured and assessed in order to determine the anti-inflammatory effects of cetylated fatty acids such as 1-TDC and uncetylated fatty acids such as myristic acid. More specifically, the following compounds were tested: 1-TDC, 2-TDC, cetyl myristate (CM), myristic acid (MA), palmityl myristate (PM), palmityl oleate (PO), and palmityl myristoleate (PMO). For this experiment, peripheral blood mononuclear cells were isolated from healthy donors (n=8) with no known medication use by Ficoll-Hypaque density gradient centrifugation. Primary T-lymphocytes were separated from other mononuclear cells (e.g., monocytes) by negative selection using magnetic cell sorting (Dynal, Invitrogen) and pure cell cultures were treated with various doses of tested compounds for 30 minutes. The tested doses were 10^−5-10^−9M. Vehicle, which was used to dissolve the compounds into an aqueous preparation, was used as the negative control while dexamethasone (1 nM) was used as the positive control. After the incubation with test compounds, half the samples were treated with DynaBeads (Dynal, Invitrogen) coated with CD3 and CD28 antibodies as the activator of cell cytokine release. Cells were incubated over various time points at 37° C. under 5% CO2. Supernatants were collected at 24 and 48 hours and were stored at −80° C. until analyzed. Each sample was prepared in triplicates. The cytokine release was analyzed by xMAP multiplexing technology using Luminex 100 platform. This method allowed simultaneous analyses of all the cytokines proposed in this experiment. The following T-lymphocyte associated cytokines: IFN-γ, IL-2, IL-10, IL-5, and IL-4 were assessed. […] A paradigm shift between the cytokines by Th1 and Th2 indicates a more or less inflammatory process depending on which of these cytokines are increased. While the validity of this shift is questioned in different diseases and/or infections, the central role of T cells in the progression of inflammation is still evaluated on the cytokine release by these subsets of lymphocytes. Data was gathered throughout 24- and 48-hour time points for T-lymphocyte mediated release. Each experiment was repeated at least 3 times and data was presented as %-inhibition over the vehicle's effect of LPS-mediated cell activation.

[6] = tested on: MCP-1; test: LPS-activated cytokine release from human primary monocytes (xMAP Luminex): MCP-1; type: cell-based
Description: as §2, §3, §4

[7] = tested on: IL-8; test: LPS-activated cytokine release from human primary monocytes (xMAP Luminex): IL-8; type: cell-based; conditions: 24 hours
Description: as §2
(§5) Fresh peripheral venous blood ([…]) was obtained by venipuncture into heparinized (10 U/mL) glass tubes. Monocytes were isolated using Ficoll-Hypaque density gradient centrifugation and separated from the other mononuclear cells (e.g., lymphocytes) by adherence for over 2 hours. Pure cell cultures were treated with various doses (10^−5-10^−9 M) of various types of fatty acids such as 1-TDC and myristic acid for 30 minutes. […] Supernatants were collected and stored at −80° C. until analyzed. […] Cytokine release (IL-1β, TNF-α, IL-6, IL-12, IL-8, and MCP-1) was analyzed by xMAP multiplexing technology using Luminex 100 Platform. […]

[8] = tested on: P. gingivalis A7436; test: Antibacterial activity: viability of P. gingivalis by Live/Dead BacLight staining and flow cytometry; type: cell-based, Porphyromonas gingivalis; conditions: for antibacterial capacity (percentage of dead bacteria) compared with chlorhexidine: FIG. 1, positive control chlorhexidine (CHX) 0.04%
Description: P. gingivalis A7436 was cultured on laced blood paromomycin agar plates and then transferred to Schaedler's broth. All cultures were grown at 37° C. under anaerobic conditions. In order to dissolve the 1-TDC and MA in an aqueous medium that can be utilized in carrying out the experiments, the following ingredients were used: ethanol (EtOH) and Methyl-β-cyclodextrin (Sigma-Aldrich, St. Louis, Mo.). More specifically, 750.0 mg of Methyl-β-cyclodextrin was dissolved in 5.0 mL of nano-pure water to get a concentration 150.0 mg/mL (MBC). The MBC solution was stored in the refrigerator at a temperature of 4° C. and was returned to room temperature before use. MA was prepared by dissolving 90.0 mg in 3.0 mL of ETOH, 2.4 mL of MBC, and 24.6 mL of SB in a sterile tube. The entire mixture was placed in a hot bath at 30° C. for 30 minutes. The final concentration of MA was 3.0 mg/mL.
2×10^7 cells were transferred to 5 mL culture tubes and treated with either 1-TDC or MA (1.0 mg/ml, 0.7 mg/mL, 0.5 mg/mL, 0.3 mg/mL, 0.1 mg/mL) or corresponding vehicle concentrations. A negative control was treated with additional Schaedler's broth. Tubes were incubated in anaerobic jars at 37° C. for several time points between 4-72 hours.
After incubation, viability of the P. gingivalis cells was assessed. 1 mL of each sample was removed and spun down. Bacteria were resuspended in 1 mL of 0.85% NaCl solution. To generate a standard curve, half of the bacteria that was not treated with vehicle or compound were heat-killed for one hour and then mixed with live cells in known proportions (0%, 25%, 50%, 75% and 100% alive). The 100% live cells were used as the negative control. To assess the viability, a fluorescent based kit was used. Live/Dead BacLight Bacterial Viability Kit (Invitrogen L7012) allows for differentiation between alive and dead bacteria at a highly accurate and sensitive way. […]
Samples were then run on the flow cytometer (FACScan). […] From these established regions, percent viability of the experimental samples were determined.

[9] = tested on: IL-1β; test: LPS-activated cytokine release from human primary monocytes (xMAP Luminex): IL-1β; type: cell-based; conditions: 24 hours
Description: as §2, §3, §4

[10] = tested on: IL-12; test: LPS-activated cytokine release from human primary monocytes (xMAP Luminex): IL-12; type: cell-based; conditions: 24 hours
Description: as §2, §5

[11] = tested on: periodontal disease established by P. gingivalis; test: Rabbit periodontal disease established by P. gingivalis, topical treatment; type: in vivo, New-Zealand White rabbits
Excerpt: Fifteen New-Zealand White rabbits are distributed into 3 groups: (1)
No treatment (5 animals), (2) Placebo treatment (5 animals), and (3) myristic acid treatment (5 animals). In all animals, periodontal disease is established by P. gingivalis application every-other-day over a 6-week period. At 6 weeks, P. gingivalis application is terminated and topical use of the myristic acid and placebo agents is initiated for a second 6 weeks at which time animals are sacrificed. Morphometric, radiographic, and histologic evaluations are performed. Histologic sections are stained with hematoxylin-eosin, and tartrate-resistant acid phosphatase (TRAP) for descriptive histology and osteoclast activity. In addition, osteocalcin staining is used to detect osteoblast activity.

[12] = tested on: IL-6; test: LPS-activated cytokine release from human primary monocytes (xMAP Luminex): IL-6; type: cell-based; conditions: 24 hours
Description: as §2, §5

[13] = tested on: IL-2; test: CD3/CD28-activated cytokine release from human primary T-lymphocytes: IL-2; type: cell-based; conditions: 24 hour period; FIG. 8
Description: as §1

CCCCCCCCCCCCCCCCOC(=O)CCCCCCCCCCCCC [Cetyl Myristate, cetyl myristate]
IL-4 generation by human T cells (activation) [1]: most potent compound tested
monocyte-mediated TNF-α release, inhibition (text) ([2]; 6 hours): inhibits
monocyte-mediated TNF-α release, inhibition (text) ([2]; 24 hours, listed as Cetyl myristate): inhibition on TNF-α continued
T-lymphocyte release of IL-10 (activation) [3]: most potent activator
IL-5 release by human T cells (activation) [4]: most potent activator
dose dependence of activation of T-cell IFN-γ release ([5]; 10^−5-10^−9M): dose-dependent activation
monocyte-mediated MCP-1 release, inhibition ([6]; 6 hours): inhibited
monocyte-mediated MCP-1 release, inhibition ([6]; 24 hours): inhibited
monocyte-mediated IL-8 release, inhibition [7]: inhibited

CCCCCCCCCCCCCC(=O)[O-].[Na+] [sodium myristate]
antibacterial capacity (percentage of dead bacteria) compared with chlorhexidine [8]: comparable level of antibacterial capacity as seen with chlorhexidine

CCCCCCCC/C=C\CCCCCCCC(=O)OCCCCCCCCCCCCCCCC [Palmityl Oleate, palmityl oleate]
monocyte-mediated TNF-α release, inhibition (text) ([2]; 24 hours): significantly and fully inhibited
effect on IFN-γ production by T-lymphocytes ([5]; 24 hour mark): inhibit
monocyte-mediated IL-1β release, inhibition [9]: significantly and fully inhibited

CCCCCCCCCCCCCC(=O)O [Myristic Acid, Myristic acid]
monocyte-mediated TNF-α release, inhibition (text) ([2]; 24 hours): all cytokines except TNF-α
monocyte-mediated IL-12 release, inhibition [10]: significantly and dose dependently inhibited
antibacterial capacity (percentage of dead bacteria) compared with chlorhexidine [8]: comparable level of antibacterial capacity as seen with chlorhexidine
dose dependence of antibacterial activity against P. gingivalis ([8]; FIG. 2, increases dramatically at 0.1 mg/ml and higher doses (e.g., 1 mg/ml)): dose-dependent
histomorphometric tissue and bone level vs placebo and no treatment ([11]; 6 weeks): significant changes in tissue and bone level
inflammatory changes in hematoxylin-eosin stained sections ([11]; 6 weeks): complete reversal of inflammatory changes
reformation of soft and bone tissues lost to periodontal inflammation ([11]; 6 weeks): reform soft and bone tissues
progression of gingival inflammation and bone destruction induced by P. gingivalis ([11]; 6 weeks after 6 weeks of disease induction): stops the progression
osteoclastic activity ([11]; 6 weeks, TRAP staining): significantly suppresses
osteoblastic activity ([11]; 6 weeks, osteocalcin staining): increased osteoblastic activity
monocyte-mediated IL-6 release, inhibition [12]: significantly and dose dependently inhibited
effect on T-lymphocyte IL-2 production [13]: activated
activation of IFN-γ release by T-lymphocytes ([5]; over 24 and 48 hours): capacity to activate IFN-γ release by T cells and this effect increased over time
monocyte-mediated MCP-1 release, inhibition ([6]; 24 hours): significantly and dose dependently inhibited
monocyte-mediated IL-1β release, inhibition [9]: significantly and dose dependently inhibited
monocyte-mediated IL-8 release, inhibition [7]: significantly and dose dependently inhibited

CCCC/C=C\CCCCCCCC(=O)OCCCCCCCCCCCCCCCC [Palmityl Myristoleate, palmityl myristoleate]
monocyte-mediated TNF-α release, inhibition (text) ([2]; 24 hours): significantly and fully inhibited
effect on IFN-γ production by T-lymphocytes ([5]; 24 hour mark): inhibit
effect on IFN-γ production by T-lymphocytes ([5]; 48 hour mark): inhibit
monocyte-mediated IL-1β release, inhibition [9]: significantly and fully inhibited

CCCCCCCCCCCCCCCCOC(=O)CCCCCCCCCCCCC [Palmityl Myristate, palmityl myristate]
monocyte-mediated TNF-α release, inhibition (text) ([2]; 24 hours, listed as palmityl myristate): blocked TNF-α release, however the inhibition was weaker compared to cetyl myristate
